Molecular target: T1, SGK2 (Homo sapiens, UniProt Q9HBY8)
T1 construct: purchased Thermo Fisher Scientific (Life Technologies) SelectScreen
Assay: SelectScreen Z'LYTE
Assay type: biochemical
Procedure, shortened: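 SelectScreen broad panel; activity (Z'LYTE, Adapta) plus binding formats. ATP: Km app for CSF1R Z'LYTE; 10 for CAMK1 Adapta. Readout = % per kinase.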

T1 sequence (Q9HBY8 whole entry): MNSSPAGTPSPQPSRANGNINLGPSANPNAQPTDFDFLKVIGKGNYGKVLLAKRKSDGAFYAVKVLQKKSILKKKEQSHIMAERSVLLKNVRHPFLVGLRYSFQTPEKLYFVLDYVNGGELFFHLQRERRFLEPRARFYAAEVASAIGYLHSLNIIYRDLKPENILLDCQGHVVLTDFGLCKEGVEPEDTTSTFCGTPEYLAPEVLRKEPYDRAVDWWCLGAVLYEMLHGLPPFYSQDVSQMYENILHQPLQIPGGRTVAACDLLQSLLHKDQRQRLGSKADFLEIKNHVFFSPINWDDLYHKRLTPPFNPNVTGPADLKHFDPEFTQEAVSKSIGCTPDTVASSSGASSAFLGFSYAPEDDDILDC

`CN(C(=O)CN1CCOCC1)c1ccc2sc3c(-c4cccc5c(=O)cc(N6CC7CCC(C6)O7)oc45)cccc3c2c1` [NU5455] was tested, and the inhibition at 1 µM was -2.7%.

Reference: publication PMC6934184, “Selective DNA-PKcs inhibition extends the therapeutic index of localized radiotherapy and chemotherapy” (The Journal of Clinical Investigation, 2019)
